Data taken from patent publication US20210284944A1, “HIGH-THROUGHPUT MULTI-ORGAN PERFUSION MODELS” (Novartis AG, priority 2018, published 2021).

Experiments:
[1] = tested on: heart, liver and lung microfluidic modules; settings: Skardal et al., Scientific Reports 7(1), 8837 (2017); cited from earlier work
[2] = tested on: HCT116 colon cancer cells; assay: Staurosporine acute toxicity on HCT116 cells in connected wells of the microfluidic device (live/dead staining); assay type: cell-based; settings: for cell death (live/dead staining): 24 hours
Method: 20,000 HCT116 cells were plated directly on the Transwell® membrane (catalog number 3386 for Transwell® plate) in McCoy's 5A media such that the connected wells preceding them were either filled with McCoy's 5A media (50 μls) alone or filled with 25 μls of 2.5 mg/ml collagen gel, with McCoy's 5A media (50 μls) above it. The arrangement is depicted in FIG. 11A, showing three pairs of connected wells (test units), where the lower well in each connected pair (test unit) has medium only, while the upper well in each test unit has HCT116 cells inside the well.
The high-throughput microfluidic device of FIG. 5B was cleaned, assembled and sterilized via autoclaving for 60 minutes. The wells of the autoclave sterilized high-throughput microfluidic device (two-well connects) were filled with 300 μLs of media and centrifuged at 40 r.c.f for 4 minutes to fill all the channels.
After 24 hours of culture, 50 μls of fresh media with different concentrations of staurosporine were added to different wells (see FIG. 11A). The device was placed on a compressed air system and the fluid was pumped via membrane flexion under a compressed air cycle of 1.5 psi (amplitude), sinusoidal wave pattern with a frequency of 0.2. The cells were imaged with live/dead staining after 24 hours to understand the diffusion characteristics of the drug and resulting cell death induced by staurosporine. […] Note that each image of the cells in a single well is divided into quadrants.

[3] = tested on: HCT116 colorectal cancer cells; assay: Hepatocyte-cancer cell crosstalk: prodrug added to hepatocyte well, cell death in connected HCT116 well (live/dead staining); assay type: cell-based; settings: increasing concentrations of Tegafur (0, 100, 200, 300 and 400 uM) added to hepatocyte chamber; fluidic flow 72 hours
Method: 20,000 primary human hepatocytes (Lonza) (Hepatocyte plating medium for 4 hours, followed by hepatocyte maintenance medium with 0.3% (v/v) matrigel GFR for 20 hours) or HepG2 cells (to be transfected with CYP2A6 cDNA (as per vendor's recommendation)) were plated in one well of the two connected wells in their respective cell culture medium (catalog number 3386 for Transwell® plate). Prior to plating the primary human hepatocytes from Lonza, the Transwell® plate was coated with 0.1 mg/ml collagen (50 μls) ([…] Sigma-collagen I rat tail solution) (solubilized in 0.1% acetic acid in 1×PBS (v/v)) for 1 hour at 37° C. (cell culture incubator) and washed with 1×PBS. The primary human hepatocytes were sandwiched in the human hepatocyte maintenance medium with 0.3% matrigel GFR (v/v) for the next 20 hours. In the other connected well of each test unit, 20,000 HCT116 cells were plated directly on the Transwell® membrane in McCoy's 5A media. For HepG2 cells, the cells were transfected with CYP2A6 cDNA for 48 hours prior to any drug addition. On the day of drug addition, the HCT116 colorectal cancer cells were moved into hepatocyte media in order to prevent mixing of different mediums. The high-throughput microfluidic device illustrated in FIG. 5B was cleaned, assembled and sterilized via autoclaving for 60 minutes. […]

[4] = tested on: primary human hepatocytes; assay: Hepatocyte-cancer cell crosstalk: viability of the hepatocytes after drug treatment; assay type: cell-based; settings: Tegafur added to hepatocyte chamber; 72 hours
Method: 20,000 primary human hepatocytes (Lonza) (Hepatocyte plating medium for 4 hours, followed by hepatocyte maintenance medium with 0.3% (v/v) matrigel GFR for 20 hours) or HepG2 cells (to be transfected with CYP2A6 cDNA (as per vendor's recommendation)) were plated in one well of the two connected wells in their respective cell culture medium (catalog number 3386 for Transwell® plate). Prior to plating the primary human hepatocytes from Lonza, the Transwell® plate was coated with 0.1 mg/ml collagen (50 μls) (C3867 Sigma—collagen I rat tail solution) (solubilized in 0.1% acetic acid in 1×PBS (v/v)) for 1 hour at 37° C. (cell culture incubator) and washed with 1×PBS. The primary human hepatocytes were sandwiched in the human hepatocyte maintenance medium with 0.3% matrigel GFR (v/v) for the next 20 hours.
The high-throughput microfluidic device illustrated in FIG. 5B was cleaned, assembled and sterilized via autoclaving for 60 minutes. The wells of the autoclave-sterilized high-throughput microfluidic device (with two wells connected for each test unit) were filled with 300 μLs of media and centrifuged at 40 r.c.f for 4 minutes to fill all the flow channels. […] FIG. 12A depicts how the wells are filled, and FIG. 12B illustrates a test unit of the system. […]

For bleomycin, the “toxicity in multi-organ system” value [1] is listed as “induce lung inflammatory factor-driven cardiotoxicity”.
In the case of `CN[C@@H]1C[C@H]2O[C@@](C)([C@@H]1OC)n1c3ccccc3c3c4c(c5c6ccccc6n2c5c31)C(=O)NC4` [staurosporine], the “cell death (live/dead staining)” value ([2]; test units with collagen gel plug as diffusion barrier, higher concentration of staurosporine) is reported as “only a minor increase in cell death”, the “cell death in the HCT116 cells” value ([2]; test units without collagen gel, 0 μM, 25 μM and 50 μM staurosporine in connected well, 24 hours of operation) is reported as “dose-dependent cell death” and the “cell death (live/dead staining)” value ([2]; without collagen gel, second image, 25 uM staurosporine) is reported as “significant cell death”. The “cell death (live/dead staining)” value ([2]; without collagen gel, third image, 50 uM staurosporine) was “much more cell death”.
In the case of `O=c1[nH]c(=O)n(C2CCCO2)cc1F` (centres unmarked) [Tegafur], the “toxicity to HCT116 eGFP cells in the connected wells” value [3] is reported as “significant dose dependent toxicity”, the “propidium iodide stain in the hepatocytes” value [4] is reported as “slight dose dependent increase” and the “viability of hepatocytes after drug treatment” value [4] is reported as “high viability”.
